Test system: 885512-296-R-J2-PDC complex spheroid growth, % test/control
Assay: Anticancer human tumor 885512-296-R-J2-PDC patient-derived breast carcinoma cell line growth inhibition [AhR]
Details: for IC50: curve of first compound; for viability, T/C: stronger effect = lower value
Method in brief: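 Agents were dosed in half-log steps down from roughly clinical Cmax, or from 10 microM where Cmax was unknown, alone and with AhR antagonists. Read-out: percent test/control growth of tumor spheroids containing HUVEC and MSC stromal cells.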

[1] = second compound 0.1 µM, first compound 0.0316 µM
[2] = second compound 0.1 µM, first compound 0.1 µM
[3] = second compound 0.1 µM, first compound 0.316 µM
[4] = second compound 0.1 µM, first compound 1 µM
[5] = second compound 0.1 µM, first compound 3.16 µM
[6] = second compound 0.1 µM, first compound 10 µM
[7] = second compound 0.316 µM, first compound 0.0316 µM
[8] = second compound 0.316 µM, first compound 0.1 µM
[9] = second compound 0.316 µM, first compound 0.316 µM
[10] = second compound 0.316 µM, first compound 1 µM
[11] = second compound 0.316 µM, first compound 3.16 µM
[12] = second compound 0.316 µM, first compound 10 µM
[13] = second compound 1 µM, first compound 0.0316 µM
[14] = second compound 1 µM, first compound 0.1 µM
[15] = second compound 1 µM, first compound 0.316 µM
[16] = second compound 1 µM, first compound 1 µM
[17] = second compound 1 µM, first compound 3.16 µM
[18] = second compound 1 µM, first compound 10 µM
[19] = second compound 3.16 µM, first compound 0.0316 µM
[20] = second compound 3.16 µM, first compound 0.1 µM
[21] = second compound 3.16 µM, first compound 0.316 µM
[22] = second compound 3.16 µM, first compound 1 µM
[23] = second compound 3.16 µM, first compound 3.16 µM
[24] = second compound 3.16 µM, first compound 10 µM
[25] = second compound 10 µM, first compound 0.0316 µM
[26] = second compound 10 µM, first compound 0.1 µM
[27] = second compound 10 µM, first compound 0.316 µM
[28] = second compound 10 µM, first compound 1 µM
[29] = second compound 10 µM, first compound 3.16 µM
[30] = second compound 10 µM, first compound 10 µM
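Further: spheroids exposed to compounds for seven days.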

In the case of COc1cc(Nc2ncc3c(n2)-c2ccc(Cl)cc2C(c2c(F)cccc2OC)=NC3)ccc1C(=O)O + Cc1cncc(-c2nc(NCCc3c[nH]c4ccccc34)c3ncn(C(C)C)c3n2)c1, the IC50 (second compound 0.1 µM) is reported as 31.6 nM, the IC50 (second compound 0.316 µM) is reported as 48.3 nM and the IC50 (second compound 1 µM) is reported as < 31.6 nM. For the same molecule, the IC50 (second compound 3.16 µM) was < 31.6 nM, the IC50 (second compound 10 µM) was < 31.6 nM and the viability, T/C [1] was 49.5%. It also gave a viability, T/C [2] of 46.1%, a viability, T/C [3] of 47.6% and a viability, T/C [4] of 50.6%. For the same molecule, the viability, T/C [5] was 30.2%, the viability, T/C [6] was 32% and the viability, T/C [7] was 53.3%. The viability, T/C [8] was 43.6%, the viability, T/C [9] was 48% and the viability, T/C [10] was 42.4%. The viability, T/C [11] was 45.8%, the viability, T/C [12] was 34.2% and the viability, T/C [13] was 44.5%. It also gave a viability, T/C [14] of 37.8%, a viability, T/C [15] of 46% and a viability, T/C [16] of 41.7%. For the same molecule, the viability, T/C [17] was 39.7%, the viability, T/C [18] was 39.5% and the viability, T/C [19] was 32.6%. The viability, T/C [20] was 35.6%, the viability, T/C [21] was 33.6% and the viability, T/C [22] was 34%. For the same molecule, the viability, T/C [23] was 32.2%, the viability, T/C [24] was 31.2% and the viability, T/C [25] was 16.2%. For the same molecule, the viability, T/C [26] was 12.8%, the viability, T/C [27] was 13.3% and the viability, T/C [28] was 14.8%. The viability, T/C [29] was 17.2% and the viability, T/C [30] was 17.6%.

In the case of Cn1ncnc1C1c2n[nH]c(=O)c3cc(F)cc(c23)NC1c1ccc(F)cc1 (stereo not given) + Cc1cncc(-c2nc(NCCc3c[nH]c4ccccc34)c3ncn(C(C)C)c3n2)c1, the IC50 (second compound 0.1 µM) is reported as > 100 nM, the IC50 (second compound 0.316 µM) is reported as > 100 nM and the IC50 (second compound 1 µM) is reported as > 100 nM. The IC50 (second compound 3.16 µM) was 35.2 nM, the IC50 (second compound 10 µM) was < 0.316 nM and the viability, T/C (second compound 0.1 µM, first compound 0.000316 µM) was 116%. The viability, T/C (second compound 0.1 µM, first compound 0.001 µM) was 112%, the viability, T/C (second compound 0.1 µM, first compound 0.00316 µM) was 99.8% and the viability, T/C (second compound 0.1 µM, first compound 0.01 µM) was 99.1%. It also gave a viability, T/C [1] of 82.4%, a viability, T/C [2] of 56.2% and a viability, T/C (second compound 0.316 µM, first compound 0.000316 µM) of 120%. It also gave a viability, T/C (second compound 0.316 µM, first compound 0.001 µM) of 108%, a viability, T/C (second compound 0.316 µM, first compound 0.00316 µM) of 105% and a viability, T/C (second compound 0.316 µM, first compound 0.01 µM) of 87.4%. It also gave a viability, T/C [7] of 76%, a viability, T/C [8] of 53.5% and a viability, T/C (second compound 1 µM, first compound 0.000316 µM) of 87.1%. For the same molecule, the viability, T/C (second compound 1 µM, first compound 0.001 µM) was 99.5%, the viability, T/C (second compound 1 µM, first compound 0.00316 µM) was 79.4% and the viability, T/C (second compound 1 µM, first compound 0.01 µM) was 74.9%. For the same molecule, the viability, T/C [13] was 68.3%, the viability, T/C [14] was 51.8% and the viability, T/C (second compound 3.16 µM, first compound 0.000316 µM) was 55.2%. The viability, T/C (second compound 3.16 µM, first compound 0.001 µM) was 58.4%, the viability, T/C (second compound 3.16 µM, first compound 0.00316 µM) was 54.6% and the viability, T/C (second compound 3.16 µM, first compound 0.01 µM) was 54.5%. The viability, T/C [19] was 49.2%, the viability, T/C [20] was 45.7% and the viability, T/C (second compound 10 µM, first compound 0.000316 µM) was 23.8%. For the same molecule, the viability, T/C (second compound 10 µM, first compound 0.001 µM) was 21.6%, the viability, T/C (second compound 10 µM, first compound 0.00316 µM) was 21.3% and the viability, T/C (second compound 10 µM, first compound 0.01 µM) was 18.1%. It also gave a viability, T/C [25] of 22.1% and a viability, T/C [26] of 21.6%.

NS(=O)(=O)OCC1CC(n2ccc3c(NC4CCc5ccccc54)ncnc32)CC1O (stereo not given) + Cc1cncc(-c2nc(NCCc3c[nH]c4ccccc34)c3ncn(C(C)C)c3n2)c1 showed an IC50 (second compound 0.1 µM) of 90.4 nM, an IC50 (second compound 0.316 µM) of 89.4 nM and an IC50 (second compound 1 µM) of 77.4 nM. The IC50 (second compound 3.16 µM) was 43.6 nM, the IC50 (second compound 10 µM) was < 31.6 nM and the viability, T/C [1] was 96.2%. It also gave a viability, T/C [2] of 45.6%, a viability, T/C [3] of 16.5% and a viability, T/C [4] of 8.26%. It also gave a viability, T/C [5] of 5.94%, a viability, T/C [6] of 6.36% and a viability, T/C [7] of 89.7%. The viability, T/C [8] was 45.6%, the viability, T/C [9] was 17.4% and the viability, T/C [10] was 6.34%. It also gave a viability, T/C [11] of 6.04%, a viability, T/C [12] of 5.52% and a viability, T/C [13] of 81.3%. It also gave a viability, T/C [14] of 41%, a viability, T/C [15] of 13.9% and a viability, T/C [16] of 5.67%. The viability, T/C [17] was 4.18%, the viability, T/C [18] was 4.92% and the viability, T/C [19] was 58.5%. The viability, T/C [20] was 28%, the viability, T/C [21] was 8.09% and the viability, T/C [22] was 3.67%. For the same molecule, the viability, T/C [23] was 3.02%, the viability, T/C [24] was 2.73% and the viability, T/C [25] was 10.3%. The viability, T/C [26] was 8.3%, the viability, T/C [27] was 3.54% and the viability, T/C [28] was 2.33%. For the same molecule, the viability, T/C [29] was 1.76% and the viability, T/C [30] was 1.73%.

With O=C(C=Cc1cccc(S(=O)(=O)Nc2ccccc2)c1)NO + Cc1cncc(-c2nc(NCCc3c[nH]c4ccccc34)c3ncn(C(C)C)c3n2)c1 the IC50 (second compound 0.1 µM) was 1010 nM, the IC50 (second compound 0.316 µM) was 1340 nM and the IC50 (second compound 1 µM) was 680 nM. The IC50 (second compound 3.16 µM) was 153 nM, the IC50 (second compound 10 µM) was < 31.6 nM and the viability, T/C [1] was 77.7%. For the same molecule, the viability, T/C [2] was 93.9%, the viability, T/C [3] was 70.5% and the viability, T/C [4] was 45%. For the same molecule, the viability, T/C [5] was 30.8%, the viability, T/C [6] was 7.26% and the viability, T/C [7] was 86.3%. The viability, T/C [8] was 80.5%, the viability, T/C [9] was 74.2% and the viability, T/C [10] was 50%. For the same molecule, the viability, T/C [11] was 37.5%, the viability, T/C [12] was 7.14% and the viability, T/C [13] was 96.1%. For the same molecule, the viability, T/C [14] was 72.5%, the viability, T/C [15] was 65.2% and the viability, T/C [16] was 41.1%. It also gave a viability, T/C [17] of 31.1%, a viability, T/C [18] of 9.39% and a viability, T/C [19] of 52.2%. It also gave a viability, T/C [20] of 62%, a viability, T/C [21] of 39.5% and a viability, T/C [22] of 31.8%. For the same molecule, the viability, T/C [23] was 21.8%, the viability, T/C [24] was 10.2% and the viability, T/C [25] was 20.6%. For the same molecule, the viability, T/C [26] was 20.6%, the viability, T/C [27] was 19.5% and the viability, T/C [28] was 16%. It also gave a viability, T/C [29] of 12.6% and a viability, T/C [30] of 5.42%.

Source: PubChem BioAssay AID1919006 (Molecular Pharmacology Branch, DTP, NCI, 2023)
